# Columns and labels:
# HeLa cells = assay: MS detection of AMD product 4 in HeLa cell lipid extracts; format: cell-based; settings: 200 μM 1 with 400 μM TCEP, 20 min
# Protocol: HeLa cells were grown to confluency in two 6 cm plates. Once confluent, media was removed and cells washed 1× with HBSS. Stock solutions were prepared as before. From these stocks, solutions of 200 μM 1 (with 400 μM TCEP) or 400 μM TCEP were prepared in OptiMEM media. To each plate was added 3 mL OptiMEM+400 μM TCEP or OptiMEM+200 μM 1 (with 400 μM TCEP). Cells were incubated at 37° C. for 20 min and then media removed and 3 mL of HBSS added to each plate. Cells were detached using a cell scraper, pelleted by centrifugation at 1,000 rcf for 5 min and the pellet subjected to a lipid extraction using the Bligh and Dyer method.^3 Lipid extracts were analyzed for the presence of the AMD product palmityl-N-L-Cys-Oct (4) using reverse phase chromatography on an HP 1100 LC station to a Thermo LCQdeca-MS running in ESI Positive Ion Mode. MS/MS analysis was performed on the [M+H]^+ peak of 4 (m/z 471) then selected reaction monitoring on the fragmentation peak (m/z 130) (FIG. 9).
# EGFP-KRas4b = assay: Live-cell imaging of EGFP-KRas4b localization in HeLa cells; format: cell-based; settings: 1.25 μmol/10^7 cells
# Protocol: Imaging was performed on an Axio Observer Z1 inverted microscope (Carl Zeiss Microscopy Gmb, Germany) with Yokogawa CSU-X1 spinning disk confocal unit using a 63×, 1.4 NA oil immersion or 20×, 0.8 NA objective to an ORCA-Flash4.0 V2 Digital CMOS camera (Hamamatsu, Japan). For live cell imaging, an incubation chamber with temperature and CO2 controllers (World Precision Instruments) was utilized. Fluorophores were excited with s diode laser (488 nm; 30 mW). Images were acquired using Zen Blue software (Carl Zeiss) and processed using Image J.^1 HeLa cells were plated at 40,000 cells/well in an 8-well Lab-Tek chamber slide (ThermoFisher) and allowed to adhere overnight. Cells were transfected with mEGFP-HRas or mEGFP-KRas4b using Lipofectamine 2000 (ThermoFisher) according to the manufacturer's protocol. 50 mM stocks of compounds 1 and 2 were prepared by dissolving the solid compound in DMSO containing 100 mM tris(2-S 3 carboxyethyl)phosphine hydrochloride (TCEP) as a preservative. From these stocks, a solution of 200 μM [1 or 2] (with 400 μM TCEP), or 400 μM TCEP was prepared in OptiMEM media. Before imaging, cells were exchanged into OptiMEM media. The diluted solutions were added to the indicated final concentration within individual wells of the chamber slide and cells imaged while maintaining 37° C., 5% CO2 in the incubation chamber. […]
# [1] = AMD model reaction with S-palmitoyl MESNA (HPLC/ELSD/MS); settings: 5 mM each reactant, NaH2PO4 buffer 200 mM pH 7.1, 10 mM TCEP, 25° C.
# Protocol: The reaction was stirred at 25° C. and aliquots taken at the specified time points and subjected to HPLC/ELSD/MS analysis (Eclipse Plus C8 analytical column, 50-95% MeOH in H2O with 0.1% TFA, 0-7 min; 95% MeOH in H2O with 0.1% TFA, 7 min-end).
# GAP43 = target: T1, GAP43 (Homo sapiens, UniProt P17677); assay: Acyl resin-assisted capture detection of GAP43 palmitoylation in INCL lymphoblasts; format: cell-based; settings: 0.05 μmol/10^7 cells, 24 h
# T1 construct: Western blot detection of endogenous GAP43 in acyl resin-assisted capture fractions; host or cells: INCL human lymphoblasts
# T1 sequence (P17677 1-238): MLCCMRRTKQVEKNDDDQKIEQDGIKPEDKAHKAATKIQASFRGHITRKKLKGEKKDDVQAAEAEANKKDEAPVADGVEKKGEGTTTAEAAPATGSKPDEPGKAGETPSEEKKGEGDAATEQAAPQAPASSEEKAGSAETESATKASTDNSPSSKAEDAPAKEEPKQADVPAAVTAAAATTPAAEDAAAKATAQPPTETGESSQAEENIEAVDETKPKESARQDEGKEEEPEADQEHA
# Protocol: INCL Lymphoblasts were adjusted to 1,000,000 cells/mL in 20 mL of OptiMem Media. Stock solutions of compounds were prepared in DMSO as before and diluted to the indicated final concentration in the cell suspension. […] Cells were pelleted by centrifugation at 1,000 rcf for 5 min and the pellet processed using a CAPTUREome S-Palmitoylated Protein Kit (Badrilla, UK) according to the manufacturer's protocol. Samples were resolved by electrophoresis using 4-20% SDS-polyacrylamide gels (Bio-Rad) under denaturing and reducing conditions. Proteins were then electrotransferred to a PVDF membrane (Bio-Rad). The membrane was blocked with 3% BSA and then subjected to immunoblot analysis using GAP-43 (B-5) Antibody (sc-17790) (Santa Cruz Biotechnology) and secondary antibody goat anti-mouse IgG HRP (ThermoFisher). Chemiluminescent detection was performed by using SuperSignal West Pico PLUS chemiluminescent substrate (ThermoFisher) according to the manufacturer's instructions.
# Assays were performed in 3 biological replicates. Each replicate involved the analysis of 4 to 5 conditions side-by-side. Western blots were analyzed using ImageJ^1. The intensity of the protein band in each cleaved bound fraction (palmitoylated protein fraction) was normalized to the intensity of the corresponding input fraction (total protein fraction). The values within individual S 4 replicates were normalized to the control or vehicle condition and reported as means±SD. An unpaired t test was performed to determine the significance between means.
smiles,measurement,setting,value
"CCCCCCCCNC(=O)[C@@H](N)CS [compound 1, H2N-L-Cys-Oct]",detection of N-acylated AMD product 4 in lipid extract (LC MS/MS),HeLa cells,"detected the expected AMD product, 4"
same,EGFP-KRas4b protein localization (fluorescence),EGFP-KRas4b,no change in protein localization
same,"reaction with MESNA thiopalmitate 3 (cleavage of model S-palmitoyl group, ligation product 4)",[1],proceeded rapidly and irreversibly
same,level of GAP43 palmitoylation,GAP43,significantly reduced

# Reference: US20210023065A1, “AMPHIPHILIC THIOL COMPOUNDS AND USES THEREOF” (THE REGENTS OF THE UNIVERSITY OF CALIFORNIA, priority 2018, published 2021)
